Measured values published in PubChem BioAssay (NCI).
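The compound was tested at five concentrations on cells cultured in 96-well plates, with a 48-hour exposure period. TGI is the concentration that stops growth completely.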 Where a SMILES comes first, the peptide text is derived from it. The star is where a group is joined. Cbz = O=C(OCc1ccccc1)*; Boc = CC(C)(C)OC(=O)*; OSu = O=C1CCC(=O)N1O*; Bn = c1ccc(C*)cc1

Experiments:
Assay in all cases: NCI anticancer screen, dose series, 48 h
UACC-62 melanoma = system: UACC-62 melanoma
OVCAR-8 ovarian = system: OVCAR-8 ovarian
XF 498 CNS = system: XF 498 CNS
DLD-1 colon = system: DLD-1 colon
LXFL 529 NSCLC = system: LXFL 529 NSCLC
M19-MEL melanoma = system: M19-MEL melanoma
SNB-78 CNS = system: SNB-78 CNS
RXF-631 renal = system: RXF-631 renal
KM20L2 colon = system: KM20L2 colon
HOP-18 NSCLC = system: HOP-18 NSCLC
DMS 114 small cell lung = system: DMS 114 small cell lung
DMS 273 small cell lung = system: DMS 273 small cell lung

## Cc1cc2c(cc1Cl)Sc1n[nH]c(=O)n1S2(=O)=O
UACC-62 melanoma
  TGI: > 100 µM
OVCAR-8 ovarian
  TGI: > 100 µM

## COc1ccc(/C=N/NC(=S)Nc2cc(C)ccc2OC)cc1
UACC-62 melanoma
  TGI: > 100 µM
OVCAR-8 ovarian
  TGI: > 100 µM

## COc1ccc(CC[N+]2(C)COc3cc4oc(=O)cc(C)c4cc3C2)cc1OC (configuration not stated)
UACC-62 melanoma
  TGI: > 100 µM
OVCAR-8 ovarian
  TGI: > 100 µM

## CC(C)(C)OC(=O)NC(Cc1ccc(OCc2ccccc2)cc1)C(=O)NC(CCCCNC(=O)OCc1ccccc1)C(=O)NC(CCCCNC(=O)OCc1ccccc1)C(=O)ON1C(=O)CCC1=O (configuration not stated) (Boc-Tyr(Bn)-Lys(Cbz)-Lys(Cbz)-OSu; configuration not given here)
UACC-62 melanoma
  TGI: 34.6 µM
OVCAR-8 ovarian
  TGI: 94.8 µM

## COc1ccc(N=Nc2c(N)nn3c(SC)c(C#N)c(N)nc23)cc1
UACC-62 melanoma
  TGI: 20.4 µM
OVCAR-8 ovarian
  TGI: 11.7 µM

## CC1(Cl)CC(C)(/C=C/Cl)C(Cl)CC1Cl (configuration not stated)
UACC-62 melanoma
  TGI: 34.1 µM
XF 498 CNS
  TGI: 27.4 µM
DLD-1 colon
  TGI: 35.7 µM
OVCAR-8 ovarian
  TGI: 31.3 µM
LXFL 529 NSCLC
  TGI: 28.3 µM
M19-MEL melanoma
  TGI: 59.1 µM
SNB-78 CNS
  TGI: 46.8 µM
RXF-631 renal
  TGI: 28.7 µM
KM20L2 colon
  TGI: 31.6 µM

## COC(=O)C(=O)C(C(=O)C(=O)Nc1ccc(C)c(C)c1)c1nc2ccc([N+](=O)[O-])cc2[nH]c1=O (configuration not stated)
UACC-62 melanoma
  TGI: > 100 µM
OVCAR-8 ovarian
  TGI: > 100 µM

## Cc1cc(C)n2c(nc3ccccc32)c1C#N
UACC-62 melanoma
  TGI: > 100 µM
OVCAR-8 ovarian
  TGI: > 100 µM

## Oc1ccc(SCc2cc(O)ccc2O)cc1
UACC-62 melanoma
  TGI: 53.2 µM
OVCAR-8 ovarian
  TGI: 41.9 µM

## O=C1C=C/C(=C/[C@H]2SSC=C[C@]23C=CC(=O)C3)C1
UACC-62 melanoma
  TGI: 58.7 µM
OVCAR-8 ovarian
  TGI: > 81 µM

## CN(/N=C\c1ccc2ccccc2c1)C1=NCCCN1
UACC-62 melanoma
  TGI: 34.5 µM
OVCAR-8 ovarian
  TGI: > 100 µM

## O=C1/C(=C/c2ccc(Cl)cc2)Oc2ccccc21
UACC-62 melanoma
  TGI: > 100 µM
OVCAR-8 ovarian
  TGI: 89.5 µM

## Cc1cc(=O)n2nc(CSc3nnc(Sc4cc(O)ccc4O)s3)sc2n1
UACC-62 melanoma
  TGI: > 100 µM
OVCAR-8 ovarian
  TGI: > 100 µM

## O=C(/C(=C/c1ccc(O)cc1)c1ccccc1)c1ccccc1
UACC-62 melanoma
  TGI: 27.1 µM
HOP-18 NSCLC
  TGI: 33.4 µM
DLD-1 colon
  TGI: 31 µM
OVCAR-8 ovarian
  TGI: 60 µM
LXFL 529 NSCLC
  TGI: 35.7 µM
M19-MEL melanoma
  TGI: 32.4 µM
SNB-78 CNS
  TGI: 70.9 µM
RXF-631 renal
  TGI: 29.3 µM
DMS 114 small cell lung
  TGI: 24.4 µM

## CCCCCCCCCCCCC1N=C(N)NC2(CCCO2)C1C(=O)OC (configuration not stated)
UACC-62 melanoma
  TGI: 14.8 µM
OVCAR-8 ovarian
  TGI: 23.3 µM

## CC(C)[C@@H]1NC(=O)[C@@H]2N=C(O[C@H]2C)[C@H](C(C)C)NC(=O)C2N=C1O[C@H]2C
UACC-62 melanoma
  TGI: > 100 µM
OVCAR-8 ovarian
  TGI: > 100 µM

## C#CCOC(=O)C(=[N+]=[N-])C(=O)CC(C)C
UACC-62 melanoma
  TGI: > 10 µM
OVCAR-8 ovarian
  TGI: > 10 µM

## Cc1nc(Cc2n[nH]c(C)n2)n[nH]1
UACC-62 melanoma
  TGI: > 100 µM
OVCAR-8 ovarian
  TGI: > 100 µM

## O=C(O)CCC1NC(/C(=C/c2ccccc2O)NC(=O)c2ccccc2)OC1=O (configuration not stated)
UACC-62 melanoma
  TGI: > 100 µM
OVCAR-8 ovarian
  TGI: > 100 µM

## S=c1[nH]n2c(COc3cc(Cl)c(OCc4nnc5sc(=S)[nH]n45)cc3Cl)nnc2s1
UACC-62 melanoma
  TGI: 83.9 µM
OVCAR-8 ovarian
  TGI: > 100 µM

## COc1cc2c(cc1OC)C(=O)/C(=C/c1ccc(N(C)C)cc1)CC2
UACC-62 melanoma
  TGI: > 10 µM
OVCAR-8 ovarian
  TGI: > 10 µM

## CC(C)(CN1CCCCC1)C(=O)CC(SCCS(=O)(=O)O)c1ccc(Cl)cc1 (configuration not stated)
UACC-62 melanoma
  TGI: 13.6 µM
OVCAR-8 ovarian
  TGI: 11.1 µM

## Cc1ccccc1Nc1nc2ccccc2nc1NS(=O)(=O)c1ccccc1
UACC-62 melanoma
  TGI: > 100 µM
OVCAR-8 ovarian
  TGI: > 100 µM

## C[n+]1c2ccccc2c(C(=O)Nc2ccc(S(=O)(=O)Nc3ncccn3)cc2)c2ccccc21
UACC-62 melanoma
  TGI: > 100 µM
OVCAR-8 ovarian
  TGI: > 100 µM

## C=CCOC(=O)N1c2ccc(O)cc2[C@@]23O[C@@]24[C@@H]1C#C/C=C\C#C[C@]3(O)C(=O)C[C@@H]4C
UACC-62 melanoma
  TGI: > 100 µM
OVCAR-8 ovarian
  TGI: > 100 µM

## CC(=O)O[C@H]1C(=O)[C@@]2(C)[C@H]([C@H](OC(=O)c3ccco3)[C@]3(O)C[C@H](OC(=O)[C@H](O)[C@@H](NC(=O)c4ccccc4)c4ccccc4)C(C)=C1C3(C)C)[C@]1(OC(C)=O)CO[C@@H]1C[C@@H]2O
UACC-62 melanoma
  TGI: > 25 µM
OVCAR-8 ovarian
  TGI: > 17.2 µM

## C[n+]1c(-c2ccc(/C=N/NC(=O)C(=O)N/N=C/c3ccc(-c4cn5ccccc5[n+]4C)cc3)cc2)cn2ccccc21
UACC-62 melanoma
  TGI: > 100 µM
OVCAR-8 ovarian
  TGI: > 100 µM

## Cc1ncc(CSC(=N)N)n1Cc1ccccc1
UACC-62 melanoma
  TGI: > 100 µM
OVCAR-8 ovarian
  TGI: > 100 µM

## CCCCCCCc1ccc(-c2nnc(N=Nc3ccc(OCCCCC)cc3)s2)s1
UACC-62 melanoma
  TGI: > 100 µM

## O=CC1=CCC2c3[nH]c4ccccc4c3CCN2C1 (configuration not stated)
UACC-62 melanoma
  TGI: > 396 µM
HOP-18 NSCLC
  TGI: > 396 µM
XF 498 CNS
  TGI: 213 µM
DLD-1 colon
  TGI: 226 µM
OVCAR-8 ovarian
  TGI: > 396 µM
LXFL 529 NSCLC
  TGI: 137 µM
M19-MEL melanoma
  TGI: 206 µM
KM20L2 colon
  TGI: > 396 µM
DMS 114 small cell lung
  TGI: 266 µM
DMS 273 small cell lung
  TGI: 212 µM

## CC(=O)N[C@@H](Cc1ccc(O)cn1)C(=O)NC1CCCCC1
UACC-62 melanoma
  TGI: > 100 µM
OVCAR-8 ovarian
  TGI: > 100 µM

## CC(C)=CC(=O)c1c(C(=O)O)nc2ccccc2[n+]1[O-]
UACC-62 melanoma
  TGI: > 100 µM
DLD-1 colon
  TGI: > 100 µM
LXFL 529 NSCLC
  TGI: > 100 µM
M19-MEL melanoma
  TGI: > 100 µM
SNB-78 CNS
  TGI: > 100 µM
RXF-631 renal
  TGI: > 100 µM
KM20L2 colon
  TGI: > 100 µM
DMS 114 small cell lung
  TGI: > 100 µM
DMS 273 small cell lung
  TGI: > 100 µM

## COc1cccc(N=NN2CCCC2)c1
UACC-62 melanoma
  TGI: > 100 µM
OVCAR-8 ovarian
  TGI: > 100 µM

## CC(=O)[C@]1(O)Cc2c(O)c3c(c(O)c2[C@@H](OC2CC(N)C(O)C(C)O2)C1)C(=O)c1c(OCc2ccccc2)cccc1C3=O (some centres not stated)
UACC-62 melanoma
  TGI: 5.63 µM
HOP-18 NSCLC
  TGI: 3.33 µM
XF 498 CNS
  TGI: 14.5 µM
OVCAR-8 ovarian
  TGI: 7.8 µM
LXFL 529 NSCLC
  TGI: 2.38 µM
SNB-78 CNS
  TGI: 36.1 µM
DMS 114 small cell lung
  TGI: 2.55 µM

## COC(=O)CC1CC2(C(=O)OC)c3[nH]c4ccccc4c3CCN2C1=O (configuration not stated)
UACC-62 melanoma
  TGI: > 100 µM
HOP-18 NSCLC
  TGI: > 100 µM
XF 498 CNS
  TGI: > 100 µM
DLD-1 colon
  TGI: > 100 µM
OVCAR-8 ovarian
  TGI: > 100 µM
LXFL 529 NSCLC
  TGI: > 100 µM
M19-MEL melanoma
  TGI: > 100 µM
SNB-78 CNS
  TGI: > 100 µM
RXF-631 renal
  TGI: 31.3 µM
KM20L2 colon
  TGI: > 100 µM
DMS 114 small cell lung
  TGI: > 100 µM
DMS 273 small cell lung
  TGI: > 100 µM

## O=c1c2cc(I)ccc2nc(-c2cccs2)n1O
UACC-62 melanoma
  TGI: > 100 µM
OVCAR-8 ovarian
  TGI: > 100 µM

## Clc1cc2ncn(C3CCCCO3)c2cc1Cl (configuration not stated)
UACC-62 melanoma
  TGI: > 100 µM
OVCAR-8 ovarian
  TGI: > 100 µM
